Source: patent publication US6358885B1, “Substituted phenylheterocyclic herbicides” (Mississippi State University, priority 1992, dated 2002)

How the values were obtained:
rape = test: Test B preemergence/postemergence greenhouse plant response rating 0 to 10; format: in vivo, Brassica napus; conditions: 0 to 10 scale
How it was run: (§1)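 Postemergence treatment of plants two to eighteen cm tall ran alongside preemergence treatment of planted seed, each using compound in a non-phytotoxic solvent.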

crabgrass = test: as above; format: in vivo, Digitaria spp.; conditions: for Plant response rating, Crabgrass: 0 to 10 scale
How it was run: as §1

wild oat = test: Test C preemergence/postemergence greenhouse plant response rating 0 to 100; format: in vivo, Avena fatua; conditions: for Plant response rating, Wild oat: 0 to 100 scale
How it was run: (§2)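 Compounds in non-phytotoxic solvent applied preemergence to sandy loam one day after planting, postemergence at the 1–4 leaf stage, or to ~2.5 cm floodwater over silt loam.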

blackgrass = test: Test B preemergence/postemergence greenhouse plant response rating 0 to 10; format: in vivo, Alopecurus myosuroides; conditions: for Plant response rating, Blackgrass: 0 to 10 scale
How it was run: as §1

wild buckwheat = test: Test C preemergence/postemergence greenhouse plant response rating 0 to 100; format: in vivo, Polygonum convolvulus; conditions: for Plant response rating, Wild buckwheat: 0 to 100 scale
How it was run: as §2

dallisgrass = test: Test G preemergence/postemergence greenhouse plant response rating 0 to 100; format: in vivo, Paspalum dilatatum; conditions: 0 to 100 scale
Description: (§3) Seeds, rhizomes, or plant parts of alfalfa (Medicago ativa), annual bluegrass (Poa annua), bermudagrass (Cynodon dactylon), broadleaf signalgrass (Brachiaria plantaginea), common purslane (Portulaca oleracea), common ragweed (Ambrosia elatior), […] (Paspalum dilatatum), goosegrass (Eleusine indica), guineagrass (Panicum maximum), […] exaltata), johnsongrass (Sorghum halepense), large crabgrass (Digitaria sanguinalis), peanut (Arachis hypoagaea), pitted morningglory (Ipomoea lacunosa), purple nutsedge (Cyperus rotundus), sandbur (Cenchrus echinatus), smooth crabgrass (Digitaria ischaemum) and yellow nutsedge (Cyperus esculentus) were planted into greenhouse pots containing greenhouse planting medium. Each pot contained only one plant species. The test compound was dissolved in a non-phytotoxic solvent and applied preemergence and/or postemergence to the plants. Preemergence applications were made within one day of planting the seeds or plant parts. Postemergence applications were applied when the plants were in the two to four leaf stage (three to twenty cm). Test chemicals were dissolved in a non-phytotoxic solvent and applied preemergence and postemergence to the plants. Untreated control plants and treated plants were placed in the greenhouse and visually evaluated for injury at 13 to 21 days after herbicide application. […] A dash (-) response indicates no test result.

purple nutsedge [1] = test: as above; format: in vivo, Cyperus rotundus; conditions: Rate 125 g/ha, 0 to 100 scale
Description: as §3

morningglory = test: Test C preemergence/postemergence greenhouse plant response rating 0 to 100; format: in vivo, Ipomoea hederacea; conditions: for Plant response rating, Morningglory: 0 to 100 scale
How it was run: as §2

rice = test: Test C flood test plant response rating 0 to 100; format: in vivo, Oryza sativa; conditions: for Plant response rating Rice Japonica: flood test species listed under POSTEMERGENCE, 0 to 100 scale
How it was run: as §2

wheat = test: Test C preemergence/postemergence greenhouse plant response rating 0 to 100; format: in vivo, Triticum aestivum; conditions: for Plant response rating, Wheat: 0 to 100 scale
How it was run: as §2

purple nutsedge [2] = test: Test B preemergence/postemergence greenhouse plant response rating 0 to 10; format: in vivo, Cyperus rotundus; conditions: 0 to 10 scale
How it was run: as §1

barnyardgrass = test: as above; format: in vivo, Echinochloa crus-galli; conditions: for Plant response rating, Barnyardgrass: 0 to 10 scale
How it was run: as §1

giant foxtail = test: as above; format: in vivo, Setaria faberii; conditions: 0 to 10 scale
How it was run: as §1

corn = test: Test C preemergence/postemergence greenhouse plant response rating 0 to 100; format: in vivo, Zea mays; conditions: for Plant response rating, Corn: 0 to 100 scale
How it was run: as §2

## C#CCOc1cc(-c2nn3c(c2Br)CCCC3)c(F)cc1Cl [Compound 26]
rape; POSTEMERGENCE, Rate 50 g/ha
  Plant response rating, Rape: 9
rape; POSTEMERGENCE, Rate 200 g/ha
  Plant response rating, Rape: 10
rape; PREEMERGENCE, Rate 50 g/ha
  Plant response rating, Rape: 3
rape; Rate 200 g/ha, PREEMERGENCE
  Plant response rating, Rape: 10
crabgrass; POSTEMERGENCE, Rate 50 g/ha
  Plant response rating (0 to 10 scale), Crabgrass: 2
crabgrass; POSTEMERGENCE, Rate 200 g/ha
  Plant response rating, Crabgrass: 6
crabgrass; PREEMERGENCE, Rate 50 g/ha
  Plant response rating, Crabgrass: 5
crabgrass; Rate 200 g/ha, PREEMERGENCE
  Plant response rating, Crabgrass: 9
Wild oat; POSTEMERGENCE, 62 g/ha
  Plant response rating, Wild oat: 30
Wild oat; POSTEMERGENCE, 250 g/ha
  Plant response rating, Wild oat: 50
Wild oat; POSTEMERGENCE, Rate 4 g/ha
  Plant response rating (0 to 100), Wild oat: 20
Wild oat; PREEMERGENCE, 250 g/ha
  Plant response rating, Wild oat: 30
Wild oat; PREEMERGENCE, Rate 4 g/ha
  Plant response rating (0 to 100), Wild oat: 0
Wild oat; Rate 16 g/ha, POSTEMERGENCE
  Plant response rating (0 to 100), Wild oat: 30
Wild oat; Rate 16 g/ha, PREEMERGENCE
  Plant response rating (0 to 100), Wild oat: 0
blackgrass; POSTEMERGENCE, Rate 50 g/ha
  Plant response rating (0 to 10 scale), Blackgrass: 4
blackgrass; POSTEMERGENCE, Rate 200 g/ha
  Plant response rating, Blackgrass: 5
blackgrass; PREEMERGENCE, Rate 50 g/ha
  Plant response rating, Blackgrass: 4
blackgrass; Rate 200 g/ha, PREEMERGENCE
  Plant response rating, Blackgrass: 6
Wild buckwheat; POSTEMERGENCE, 62 g/ha
  Plant response rating, Wild buckwheat: 100
Wild buckwheat; POSTEMERGENCE, 250 g/ha
  Plant response rating, Wild buckwheat: 100
Wild buckwheat; POSTEMERGENCE, Rate 4 g/ha
  Plant response rating (0 to 100), Wild buckwheat: 50
Wild buckwheat; PREEMERGENCE, 250 g/ha
  Plant response rating, Wild buckwheat: 100
Wild buckwheat; PREEMERGENCE, Rate 4 g/ha
  Plant response rating (0 to 100), Wild buckwheat: 20
Wild buckwheat; Rate 16 g/ha, POSTEMERGENCE
  Plant response rating (0 to 100), Wild buckwheat: 80
Wild buckwheat; Rate 16 g/ha, PREEMERGENCE
  Plant response rating (0 to 100), Wild buckwheat: 80
dallisgrass; POSTEMERGENCE, Rate 125 g/ha
  Plant response rating, Dallisgrass: 0
dallisgrass; POSTEMERGENCE, Rate 250 g/ha
  Plant response rating, Dallisgrass: 0
dallisgrass; PREEMERGENCE, Rate 125 g/ha
  Plant response rating, Dallisgrass: 20
dallisgrass; PREEMERGENCE, Rate 250 g/ha
  Plant response rating, Dallisgrass: 20
Purple nutsedge [1]; POSTEMERGENCE
  Plant response rating, Purple Nutsedge: 0
Purple nutsedge [1]; PREEMERGENCE
  Plant response rating, Purple Nutsedge: 0
morningglory; POSTEMERGENCE, 62 g/ha
  Plant response rating, Morningglory: 70
morningglory; POSTEMERGENCE, 250 g/ha
  Plant response rating, Morningglory: 100
morningglory; POSTEMERGENCE, Rate 4 g/ha
  Plant response rating (0 to 100), Morningglory: 50
morningglory; PREEMERGENCE, 62 g/ha
  Plant response rating, Morningglory: 20
morningglory; PREEMERGENCE, 250 g/ha
  Plant response rating, Morningglory: 100
morningglory; PREEMERGENCE, Rate 4 g/ha
  Plant response rating (0 to 100), Morningglory: 0
morningglory; Rate 16 g/ha, POSTEMERGENCE
  Plant response rating (0 to 100), Morningglory: 70
morningglory; Rate 16 g/ha, PREEMERGENCE
  Plant response rating (0 to 100), Morningglory: 0
rice; POSTEMERGENCE section, flood test, Rate 4 g/ha
  Plant response rating (0 to 100), Rice Japonica: 40
rice; Rate 16 g/ha, under POSTEMERGENCE head (flood test species)
  Plant response rating (0 to 100), Rice Japonica: 65
rice; 62 g/ha
  Plant response rating Rice Japonica: 80
rice; 250 g/ha
  Plant response rating Rice Japonica: 85
wheat; POSTEMERGENCE, 62 g/ha
  Plant response rating, Wheat: 40
wheat; POSTEMERGENCE, 250 g/ha
  Plant response rating, Wheat: 60
wheat; POSTEMERGENCE, Rate 4 g/ha
  Plant response rating (0 to 100), Wheat: 20
wheat; PREEMERGENCE, 250 g/ha
  Plant response rating, Wheat: 10
wheat; PREEMERGENCE, Rate 4 g/ha
  Plant response rating (0 to 100), Wheat: 0
wheat; Rate 16 g/ha, POSTEMERGENCE
  Plant response rating (0 to 100), Wheat: 20
wheat; Rate 16 g/ha, PREEMERGENCE
  Plant response rating (0 to 100), Wheat: 0
Purple nutsedge [2]; POSTEMERGENCE, Rate 200 g/ha
  Plant response rating, Nutsedge: 4
Purple nutsedge [2]; PREEMERGENCE, Rate 50 g/ha
  Plant response rating, Nutsedge: 0
Purple nutsedge [2]; Rate 200 g/ha, PREEMERGENCE
  Plant response rating, Nutsedge: 0
barnyardgrass; POSTEMERGENCE, Rate 50 g/ha
  Plant response rating (0 to 10 scale), Barnyardgrass: 5
barnyardgrass; POSTEMERGENCE, Rate 200 g/ha
  Plant response rating, Barnyardgrass: 7
barnyardgrass; PREEMERGENCE, Rate 50 g/ha
  Plant response rating, Barnyardgrass: 2
barnyardgrass; Rate 200 g/ha, PREEMERGENCE
  Plant response rating, Barnyardgrass: 7
Giant foxtail; POSTEMERGENCE, Rate 50 g/ha
  Plant response rating, Giant foxtail: 4
Giant foxtail; POSTEMERGENCE, Rate 200 g/ha
  Plant response rating, Giant foxtail: 6
Giant foxtail; PREEMERGENCE, Rate 50 g/ha
  Plant response rating, Giant foxtail: 6
Giant foxtail; Rate 200 g/ha, PREEMERGENCE
  Plant response rating, Giant foxtail: 10
corn; POSTEMERGENCE, 62 g/ha
  Plant response rating, Corn: 50
corn; POSTEMERGENCE, 250 g/ha
  Plant response rating, Corn: 50
corn; PREEMERGENCE, 62 g/ha
  Plant response rating, Corn: 0
corn; PREEMERGENCE, 250 g/ha
  Plant response rating, Corn: 30
corn; PREEMERGENCE, Rate 4 g/ha
  Plant response rating (0 to 100), Corn: 0
corn; Rate 4 g/ha, POSTEMERGENCE
  Plant response rating (0 to 100), Corn: 30
corn; Rate 16 g/ha, POSTEMERGENCE
  Plant response rating (0 to 100), Corn: 40
corn; Rate 16 g/ha, PREEMERGENCE
  Plant response rating (0 to 100), Corn: 0
